The results in this text go back to publication PMC12434670 (Journal of Medicinal Chemistry, 2025).

The test system of data set [1] is A/H1N1 virus A/PR/8/34 (PR8). As to the kind of experiment: microbe, parasite or virus in culture. Type of data set: cell-based. The conditions noted are these: Influenza A virus, MDCK.
For data set [2], the system named is A/H1N1 virus A/Virginia/ATCC3/2009 (Virg09). Briefly: microbe, parasite or virus in culture. Type of data set: cell-based, influenza A virus. The conditions noted are these: for EC50: Influenza A virus, MDCK.
The next data set has as its system MDCK cells. The conditions noted are these: dog.
A further data set is described as follows: in vitro. The conditions noted are these: dog.
The mark [3] stands for this setting: read-out: Antiviral EC50 for PR8 virus.
[4] abbreviates: read-out: Antiviral EC50 for Virg09 virus.
Where [5] appears, read: read-out: Antiviral EC50 against A/H1N1 virus, PR8 strain, MTS.
[6] abbreviates: read-out: Antiviral EC50 against A/H1N1 virus, PR8 strain, Microscopy.
Where [7] appears, read: read-out: Antiviral EC50 against A/H1N1 virus, Virg09 strain, MTS.
Where [8] appears, read: read-out: Antiviral EC50 against A/H1N1 virus, Virg09 strain, Microscopy.

Like-named read-outs stand apart in the source and are kept apart here.

As to `Cc1cc(CNC(=O)c2cc(F)cc(F)c2)c(C)s1` [Compound 26, 3,5-Difluoro-N-[(2,5-dimethylthiophen-3-yl)methyl]benzamide], the EC50 in data set [1] (setting [3]) and in data set [2] (setting [4]) was more than 100 µM in each case.
On to `Cc1cc(CNC(=O)c2cc(Cl)cc(Cl)c2)c(C)s1` [Compound 27, 3,5-Dichloro-N-[(2,5-dimethylthiophen-3-yl)methyl]benzamide], for which the EC50 in data set [1] (setting [3]) and in data set [2] (setting [4]) was more than 100 µM throughout.
Take `Cc1cc(CNC(=O)c2cc(Br)cc(Br)c2)c(C)s1` [Compound 28, 3,5-Dibromo-N-[(2,5-dimethylthiophen-3-yl)methyl]benzamide]: the EC50 in data set [1] (setting [3]) and in data set [2] (setting [4]) was more than 100 µM each time.
As to `Cc1cc(CNC(=O)c2cccc(F)c2)c(C)s1` [Compound 30, N-[(2,5-Dimethylthiophen-3-yl)methyl]-3-fluorobenzamide], the EC50 in data set [1] (setting [3]) and in data set [2] (setting [4]) was more than 100 µM throughout.
As to `Cc1cc(CNC(=O)c2cccc(C(F)(F)F)c2)c(C)s1` [Compound 31, N-[(2,5-Dimethylthiophen-3-yl)methyl]-3-(trifluoromethyl)benzamide], the EC50 in data set [1] (setting [3]) and in data set [2] (setting [4]) was more than 100 µM in each case.
As to `Cc1cc(CNC(=O)c2cccc(Cl)c2)c(C)s1` [Compound 32, 3-Chloro-N-[(2,5-dimethylthiophen-3-yl)methyl]benzamide], the EC50 in data set [1] (setting [3]) and in data set [2] (setting [4]) was more than 100 µM throughout.
For the compound `Cc1cc(CNC(=O)c2cccc(Br)c2)c(C)s1` [Compound 33, 3-Bromo-N-[(2,5-dimethylthiophen-3-yl)methyl]benzamide], the EC50 in data set [1] (setting [3]) and in data set [2] (setting [4]) was more than 100 µM throughout.
As for `Cc1cc(CNC(=O)c2cccc([N+](=O)[O-])c2)c(C)s1` [Compound 34, N-[(2,5-Dimethylthiophen-3-yl)methyl]-3-nitrobenzamide], the EC50 in data set [1] (setting [3]) and in data set [2] (setting [4]) was more than 100 µM throughout.
Turning to `Cc1cc(CNC(=O)c2cc(F)c(F)c(C(F)(F)F)c2)c(C)s1` [Compound 35, N-((2,5-Dimethylthiophen-3-yl)methyl)-3,4-difluoro-5-(trifluoromethyl)benzamide], the EC50 in data set [1] (setting [5]) was determined as 0.22 ± 0.03 µM; in data set [1] (setting [6]), 0.86 ± 0.41 µM; in data set [2] (setting [7]), 0.2 ± 0.05 µM; in data set [2] (setting [8]), 0.89 ± 0.13 µM. For the same compound, the “Cytotoxicity MCC, Microscopy” value in the data set on MDCK cells was more than 100 µM. Besides, the CC50 in “in vitro” is more than 100 µM.
Consider `Cc1cc(CNC(=O)c2ccccc2)c(C)s1` [Compound 40, N-((2,5-Dimethylthiophen-3-yl)methyl)benzamide], for which the EC50 in data set [1] (setting [3]) and in data set [2] (setting [4]) was more than 100 µM throughout.
With `Cc1cc(CNC(=O)c2ccc(Cl)cc2)c(C)s1` [Compound 41, 4-Chloro-N-((2,5-dimethylthiophen-3-yl)methyl)benzamide], the EC50 in data set [1] (setting [3]) and in data set [2] (setting [4]) was more than 100 µM throughout.
In the case of `Cc1ccc(C(=O)NCc2cc(C)sc2C)cc1` [Compound 42, N-((2,5-Dimethylthiophen-3-yl)methyl)-4-methylbenzamide], the EC50 in data set [1] (setting [3]) and in data set [2] (setting [4]) was more than 100 µM each time.
`COc1ccc(C(=O)NCc2cc(C)sc2C)cc1` [Compound 43, N-((2,5-Dimethylthiophen-3-yl)methyl)-4-methoxybenzamide]: the EC50 in data set [1] (setting [3]) and in data set [2] (setting [4]) was more than 100 µM throughout.
As for `Cc1cc(CNC(=O)c2ccc(Cl)c(Cl)c2)c(C)s1` [Compound 44, 3,4-Dichloro-N-((2,5-dimethylthiophen-3-yl)methyl)benzamide], the EC50 in data set [1] (setting [3]) and in data set [2] (setting [4]) was more than 100 µM each time.
In the case of `Cc1cc(CNC(=O)c2cc(F)cc(C(F)(F)F)c2)cs1` [Compound 45, 3-Fluoro-N-((5-methylthiophen-3-yl)methyl)-5-(trifluoromethyl)benzamide], the EC50 in data set [1] (setting [5]) was 0.68 ± 0.51 µM; in data set [1] (setting [6]), 0.26 ± 0.02 µM; in data set [2] (setting [7]) it was 0.39 ± 0.18 µM; in data set [2] (setting [8]), 1.6 ± 0.5 µM. Moreover, in the data set with MDCK cells, the “Cytotoxicity MCC, Microscopy” value is 78 ± 22 µM. In “in vitro”, the CC50 amounted to 67 ± 1 µM.
With `Cc1sccc1CNC(=O)c1cc(F)cc(C(F)(F)F)c1` [Compound 46, 3-Fluoro-N-((2-methylthiophen-3-yl)methyl)-5-(trifluoromethyl)benzamide], the EC50 in data set [1] (setting [5]) was determined as 0.23 ± 0.08 µM; in data set [1] (setting [6]), 0.17 ± 0.04 µM; in data set [2] (setting [7]), 6.8 ± 6.5 µM; in data set [2] (setting [8]), 8.3 ± 5.1 µM. For the same compound, the “ΔΔG (exp), change VF-57a → labelled compound” value in data set [2] was found to be 1.8 kcal/mol. Besides, the “ΔΔG (exp), change labelled compound → VF-57a” value in data set [2] was “–1.8 kcal/mol”. For the same compound, the “Cytotoxicity MCC, Microscopy” value in the data set on MDCK cells turned out to be 67 ± 33 µM. In “in vitro”, this compound came in with a CC50 of more than 100 µM.
With `O=C(NCc1ccsc1)c1cc(F)cc(C(F)(F)F)c1` [Compound 47, 3-Fluoro-N-(Thiophen-3-ylmethyl)-5-(trifluoromethyl)benzamide], the EC50 in data set [1] (setting [5]) is 0.42 ± 0.1 µM; in data set [1] (setting [6]) it was 0.44 ± 0.16 µM; in data set [2] (setting [7]), 7.2 ± 4.1 µM; in data set [2] (setting [8]), 20 ± 8 µM. The “ΔΔG (exp), change VF-57a → labelled compound” value in data set [2] is 1.9 kcal/mol. For the same compound, the “ΔΔG (exp), change labelled compound → VF-57a” value in data set [2] was “–1.9 kcal/mol”. In the data set on MDCK cells, the “Cytotoxicity MCC, Microscopy” value was more than 100 µM. The CC50 in the data set “in vitro” is more than 100 µM.
Consider `Cc1cc(CNC(=O)c2cc(Cl)cc(C(F)(F)F)c2)cs1` [Compound 48, 3-Chloro-N-((5-methylthiophen-3-yl)methyl)-5-(trifluoromethyl)benzamide], for which the EC50 in data set [1] (setting [5]) turned out to be 0.34 ± 0.18 µM; in data set [1] (setting [6]), 0.46 ± 0.14 µM; in data set [2] (setting [7]), 0.15 ± 0.12 µM; in data set [2] (setting [8]) it was 1.9 ± 1.1 µM. For the same compound, the “Cytotoxicity MCC, Microscopy” value in the data set with MDCK cells was more than 100 µM. In the data set “in vitro”, this compound yielded a CC50 of more than 100 µM.
Take `Cc1sccc1CNC(=O)c1cc(Cl)cc(C(F)(F)F)c1` [Compound 49, 3-Chloro-N-((2-methylthiophen-3-yl)methyl)-5-(trifluoromethyl)benzamide]: the EC50 worked out at 0.14 ± 0.04 µM in data set [1] (setting [5]), 0.14 ± 0.05 µM in data set [1] (setting [6]), 0.37 ± 0.16 µM in data set [2] (setting [7]) and 0.48 ± 0.07 µM in data set [2] (setting [8]). Moreover, the “Cytotoxicity MCC, Microscopy” value in the data set with MDCK cells was 78 ± 22 µM. In the data set “in vitro”, this compound gave a CC50 of more than 100 µM.
For `O=C(NCc1ccsc1)c1cc(Cl)cc(C(F)(F)F)c1` [Compound 50, 3-Chloro-N-(Thiophen-3-ylmethyl)-5-(trifluoromethyl)benzamide], the EC50 in data set [1] (setting [5]) was found to be 2 ± 1 µM; in data set [1] (setting [6]), 1 ± 0.6 µM; in data set [2] (setting [7]) it was 1.1 ± 0.5 µM; in data set [2] (setting [8]) it was 2.1 µM. Also, the “ΔΔG (exp), change VF-57a → labelled compound” value in data set [2] came out at 0.8 kcal/mol. In addition, the “ΔΔG (exp), change labelled compound → VF-57a” value in data set [2] is reported as “–0.8 kcal/mol”. In addition, in the data set on MDCK cells, the “Cytotoxicity MCC, Microscopy” value stood at 100 ± 0 µM. The CC50 in “in vitro” stood at 70 ± 2 µM.
`Cc1cc(CNC(=O)c2cc(F)c(F)c(C(F)(F)F)c2)cs1` [Compound 51, 3,4-Difluoro-N-((5-methylthiophen-3-yl)methyl)-5-(trifluoromethyl)benzamide]: the EC50 in data set [1] (setting [5]) is 2.9 ± 1.1 µM; in data set [1] (setting [6]), 3.5 ± 1.2 µM; in data set [2] (setting [7]), 5.3 ± 0.8 µM; in data set [2] (setting [8]), more than 100 µM. For the same compound, in the data set on MDCK cells, the “Cytotoxicity MCC, Microscopy” value worked out at 33 ± 0 µM. The CC50 in the data set “in vitro” was 24 ± 2 µM.
In the case of `Cc1cc(CNC(=O)c2cc(Cl)c(F)c(C(F)(F)F)c2)cs1` [Compound 52, 3-Chloro-4-fluoro-N-((5-methylthiophen-3-yl)methyl)-5-(trifluoromethyl)benzamide], the EC50 was 8.5 ± 5.6 µM in data set [1] (setting [5]), 13 ± 8 µM in data set [1] (setting [6]), more than 100 µM in data set [2] (setting [7]) and more than 100 µM in data set [2] (setting [8]). Also, in the data set on MDCK cells, the “Cytotoxicity MCC, Microscopy” value was more than 100 µM. This compound had a CC50 in the data set “in vitro” of more than 100 µM.
For `Cc1cc(CNC(=O)c2cc(Cl)cc(C(F)(F)F)c2Cl)cs1` [Compound 53, 2,5-Dichloro-N-((5-methylthiophen-3-yl)methyl)-3-(trifluoromethyl)benzamide], the EC50 in data set [1] (setting [5]) is 17 ± 8 µM; in data set [1] (setting [6]), more than 100 µM; in data set [2] (setting [7]), 31 ± 3 µM; in data set [2] (setting [8]), more than 100 µM. The “Cytotoxicity MCC, Microscopy” value with MDCK cells was more than 100 µM. The CC50 in the data set “in vitro” was more than 100 µM.
`O=C(NCc1ccoc1)c1cc(F)cc(C(F)(F)F)c1` [Compound 56, 3-Fluoro-N-(Furan-3-ylmethyl)-5-(trifluoromethyl)benzamide]: the EC50 in data set [1] (setting [3]) and in data set [2] (setting [4]) was more than 100 µM each time.
With `O=C(NCc1cncs1)c1cc(F)cc(C(F)(F)F)c1` [Compound 57, 3-Fluoro-N-(Thiazol-5-ylmethyl)-5-(trifluoromethyl)benzamide], the EC50 in data set [1] (setting [3]) and in data set [2] (setting [4]) was more than 100 µM in each case.
Regarding `O=C(NCc1ccon1)c1cc(F)cc(C(F)(F)F)c1` [Compound 58, 3-Fluoro-N-(Isoxazol-3-ylmethyl)-5-(trifluoromethyl)benzamide], the EC50 in data set [1] (setting [3]) and in data set [2] (setting [4]) was more than 100 µM in each case.
Take `O=C(NCc1ccncc1)c1cc(F)cc(C(F)(F)F)c1` [Compound 59, 3-Fluoro-N-(Pyridin-4-ylmethyl)-5-(trifluoromethyl)benzamide]: the EC50 in data set [1] (setting [3]) and in data set [2] (setting [4]) was more than 100 µM each time.
Take `O=C(NCc1cc[nH]n1)c1cc(F)cc(C(F)(F)F)c1` [Compound 60, N-((1H-Pyrazol-3-Yl)methyl)-3-fluoro-5-(trifluoromethyl)benzamide]: the EC50 in data set [1] (setting [3]) and in data set [2] (setting [4]) was more than 100 µM each time.
For the compound `O=C(NCc1cocn1)c1cc(F)cc(C(F)(F)F)c1` [Compound 61, 3-Fluoro-N-(Oxazol-4-ylmethyl)-5-(trifluoromethyl)benzamide], the EC50 in data set [1] (setting [3]) and in data set [2] (setting [4]) was more than 100 µM in each case.
With `O=C(NCc1cscn1)c1cc(F)cc(C(F)(F)F)c1` [Compound 62, 3-Fluoro-N-(Thiazol-4-ylmethyl)-5-(trifluoromethyl)benzamide], the EC50 in data set [1] (setting [3]) and in data set [2] (setting [4]) was more than 100 µM in each case.
